What all share (type): cell-based
In one test the target is T1, glucagon receptor (Homo sapiens, UniProt P47871).
T1 construct: expressed in transfected cells; host or cells: HEK293
Nature of the test: cAMP induction, firefly luciferase reporter assay in HEK293 cells co-transfected with the glucagon receptor. Conditions: HEK293 cells, cAMP-responsive luciferase reporter, 5 hours incubation. As to the method: (§1) The ability of each peptide to induce cAMP was measured in a firefly luciferase-based reporter assay. […] At the end of the incubation, 100 μL of LucLite luminescence substrate reagent (Perkin Elmer, Wellesley, Mass.) were added to each well. […] In some instances, the in vitro agonist activity at the GIP receptor was also tested.
(In a reporter assay the amount or activity of a reporter protein is the signal.)

The next test concerns the target T2, GIP receptor (Homo sapiens, UniProt P48546).
T2 construct: expressed in transfected cells; host or cells: HEK293
T2 sequence (P48546 22-466): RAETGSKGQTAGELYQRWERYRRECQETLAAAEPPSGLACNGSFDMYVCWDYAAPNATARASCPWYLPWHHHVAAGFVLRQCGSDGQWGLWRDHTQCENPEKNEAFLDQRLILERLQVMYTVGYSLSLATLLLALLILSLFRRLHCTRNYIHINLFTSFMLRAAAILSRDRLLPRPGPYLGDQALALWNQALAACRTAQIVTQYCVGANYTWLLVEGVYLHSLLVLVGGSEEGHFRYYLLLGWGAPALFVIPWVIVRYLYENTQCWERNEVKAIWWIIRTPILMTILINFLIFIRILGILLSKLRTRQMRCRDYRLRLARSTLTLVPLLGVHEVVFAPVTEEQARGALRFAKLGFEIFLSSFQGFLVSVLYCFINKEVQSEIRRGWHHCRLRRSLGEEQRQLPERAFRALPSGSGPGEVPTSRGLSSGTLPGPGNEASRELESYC
The experiment in a line: in vitro agonist activity at the GIP receptor (cAMP luciferase reporter, HEK293 cells). The note with it: in vitro agonist activity; read-out: EC50 (nM) at GIP receptor. Here is the method: It is understood that a lower EC50 indicates higher activity or potency at the receptor. […] The ability of each peptide to induce cAMP was measured in a firefly luciferase-based reporter assay. […] At the end of the incubation, 100 μL of LucLite luminescence substrate reagent (Perkin Elmer, Wellesley, Mass.) were added to each well. […] In some instances, the in vitro agonist activity at the GIP receptor was also tested.

In the next test the target is T3, GLP-1 receptor (Homo sapiens, UniProt P43220).
T3 construct: expressed in transfected cells; host or cells: HEK293
Nature of the test: cAMP induction, firefly luciferase reporter assay in HEK293 cells co-transfected with the GLP-1 receptor. The note with it: HEK293 cells, cAMP-responsive luciferase reporter, 5 hours incubation. As to the method:
as §1

Numbered stars: 1 amine (or outer) side, 2 acyl side, 3 side chain; on linkers, the order of the positions; unused ones are H or OH. Square brackets hold non-standard residues; d marks the D form. Side chains are listed from the residue outwards. Peptide text beside a SMILES is read from it. * marks the point of attachment. γGlu = O=C(O)[C@H](CCC(=O)[*:2])N[*:1]; Palmitoyl = CCCCCCCCCCCCCCCC(=O)*; Aib = CC(C)(N)C(=O)O

T1 sequence (P47871 26-477, species assumed): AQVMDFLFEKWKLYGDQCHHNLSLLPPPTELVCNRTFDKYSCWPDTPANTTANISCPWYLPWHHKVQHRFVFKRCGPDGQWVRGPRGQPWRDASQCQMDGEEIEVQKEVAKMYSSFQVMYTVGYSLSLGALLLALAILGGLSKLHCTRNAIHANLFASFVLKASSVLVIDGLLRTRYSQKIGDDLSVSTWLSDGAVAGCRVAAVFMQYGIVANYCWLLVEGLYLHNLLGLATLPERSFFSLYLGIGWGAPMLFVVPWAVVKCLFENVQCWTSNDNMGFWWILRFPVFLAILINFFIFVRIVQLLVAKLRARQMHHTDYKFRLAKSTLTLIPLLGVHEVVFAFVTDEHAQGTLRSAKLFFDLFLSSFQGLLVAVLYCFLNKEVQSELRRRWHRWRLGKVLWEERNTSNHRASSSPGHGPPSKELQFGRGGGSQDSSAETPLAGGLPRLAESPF
T3 sequence (P43220 24-463): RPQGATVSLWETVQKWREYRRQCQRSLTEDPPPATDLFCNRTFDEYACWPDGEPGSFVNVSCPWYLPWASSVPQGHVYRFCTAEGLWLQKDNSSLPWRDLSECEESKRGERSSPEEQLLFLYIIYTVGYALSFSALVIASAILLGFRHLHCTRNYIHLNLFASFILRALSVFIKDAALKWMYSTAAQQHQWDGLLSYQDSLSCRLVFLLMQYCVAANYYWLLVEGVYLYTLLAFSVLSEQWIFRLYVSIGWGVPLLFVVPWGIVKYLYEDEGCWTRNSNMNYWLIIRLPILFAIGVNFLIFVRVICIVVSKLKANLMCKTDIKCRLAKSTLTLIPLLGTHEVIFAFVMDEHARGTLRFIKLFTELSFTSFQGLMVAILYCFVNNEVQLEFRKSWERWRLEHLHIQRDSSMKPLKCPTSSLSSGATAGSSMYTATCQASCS

Turning to `CCCCCCCCCCCCCCCC(=O)N[C@@H](CCC(=O)NCCCC[C@H](NC(=O)[C@H](CC(=O)O)NC(=O)[C@H](CO)NC(=O)[C@@H](NC(=O)[C@H](Cc1ccccc1)NC(=O)[C@@H](NC(=O)CNC(=O)[C@H](CCC(N)=O)NC(=O)[C@@H](CO)NC(=O)[C@@H](N)Cc1c[nH]cn1)[C@@H](C)O)[C@@H](C)O)C(=O)N[C@@H](CO)C(=O)N[C@@H](CCCCN)C(=O)N[C@@H](Cc1ccc(O)cc1)C(=O)N[C@@H](CC(C)C)C(=O)N[C@@H](CC(=O)O)C(=O)N[C@@H](CCC(=O)O)C(=O)N[C@@H](CCCNC(=N)N)C(=O)N[C@@H](C)C(=O)N[C@@H](C)C(=O)N[C@@H](CCC(N)=O)C(=O)N[C@@H](CC(=O)O)C(=O)N[C@@H](Cc1ccccc1)C(=O)N[C@H](C(=O)N[C@@H](CCC(N)=O)C(=O)N[C@@H](Cc1c[nH]c2ccccc12)C(=O)N[C@@H](CC(C)C)C(=O)N[C@@H](CC(C)C)C(=O)N[C@@H](CC(=O)O)C(=O)NCC(=O)N[C@@H](CCCNC(=N)N)C(=O)N[C@@H](CCCCN)C(N)=O)C(C)C)C(=O)O` [compound 28], the values for the EC50 on glucagon receptor, on GIP receptor and at GLP-1 receptor were 0.015 nM, 2.84 nM and 0.003 nM, respectively.

Turning to `CCCCCCCCCCCCCCCC(=O)N[C@@H](CCC(=O)N[C@@H](CCC(=O)NCCCC[C@H](NC(=O)[C@H](CC(=O)O)NC(=O)[C@H](CO)NC(=O)[C@@H](NC(=O)[C@H](Cc1ccccc1)NC(=O)[C@@H](NC(=O)CNC(=O)[C@H](CCC(N)=O)NC(=O)C(C)(C)NC(=O)[C@@H](N)Cc1c[nH]cn1)[C@@H](C)O)[C@@H](C)O)C(=O)N[C@@H](CO)C(=O)N[C@@H](CCCCN)C(=O)N[C@@H](Cc1ccc(O)cc1)C(=O)N[C@@H](CC(C)C)C(=O)N[C@@H](CC(=O)O)C(=O)NC(C)(C)C(=O)N[C@@H](CCCNC(=N)N)C(=O)N[C@@H](C)C(=O)N[C@@H](C)C(=O)N[C@@H](CCC(N)=O)C(=O)N[C@@H](CC(=O)O)C(=O)N[C@@H](Cc1ccccc1)C(=O)N[C@H](C(=O)N[C@@H](CCC(N)=O)C(=O)N[C@@H](Cc1c[nH]c2ccccc12)C(=O)N[C@@H](CC(C)C)C(=O)N[C@@H](CCCCN)C(=O)NC(C)(C)C(=O)NCC(=O)N[C@@H](CCCNC(=N)N)C(=O)NCC(N)=O)C(C)C)C(=O)O)C(=O)O` [compound 26] (H-H[Aib]QGTFTSDK([γGlu-γGlu-Palmitoyl])SKYLD[Aib]RAAQDFVQWLK[Aib]GRG-NH2; N-terminus assumed), the EC50 – broadly, the midpoint of the concentration-response curve – on glucagon receptor was found to be 0.106 nM; on GIP receptor, 3.29 nM; on GLP-1 receptor, 0.004 nM.

As for `CCCCCCCCCCCCCCCC(=O)N[C@@H](CCC(=O)N[C@@H](CCC(=O)NCCCC[C@H](NC(=O)[C@H](CC(=O)O)NC(=O)[C@H](CO)NC(=O)[C@@H](NC(=O)[C@H](Cc1ccccc1)NC(=O)[C@@H](NC(=O)CNC(=O)[C@H](CCC(N)=O)NC(=O)C(C)(C)NC(=O)[C@@H](N)Cc1c[nH]cn1)[C@@H](C)O)[C@@H](C)O)C(=O)N[C@@H](CO)C(=O)N[C@@H](CCCCN)C(=O)N[C@@H](Cc1ccc(O)cc1)C(=O)N[C@@H](CC(C)C)C(=O)N[C@@H](CC(=O)O)C(=O)NC(C)(C)C(=O)N[C@@H](CCCNC(=N)N)C(=O)N[C@@H](C)C(=O)N[C@@H](C)C(=O)N[C@@H](CCC(N)=O)C(=O)N[C@@H](CC(=O)O)C(=O)N[C@@H](Cc1ccccc1)C(=O)N[C@H](C(=O)N[C@@H](CCC(N)=O)C(=O)N[C@@H](Cc1c[nH]c2ccccc12)C(=O)N[C@@H](CC(C)C)C(=O)N[C@@H](CCSC)C(=O)N[C@@H](CCCCN)C(=O)NCC(=O)N[C@@H](CCCNC(=N)N)C(=O)NCC(N)=O)C(C)C)C(=O)O)C(=O)O` [compound 23] (H-H[Aib]QGTFTSDK([γGlu-γGlu-Palmitoyl])SKYLD[Aib]RAAQDFVQWLMKGRG-NH2; N-terminus assumed), the EC50 at glucagon receptor was 0.023 nM; at GIP receptor, 1.58 nM; at GLP-1 receptor, 0.004 nM.

`CCCCCCCCCCCCCCCC(=O)N[C@@H](CCC(=O)N[C@@H](CCC(=O)NCCCC[C@H](NC(=O)[C@H](CC(=O)O)NC(=O)[C@H](CO)NC(=O)[C@@H](NC(=O)[C@H](Cc1ccccc1)NC(=O)[C@@H](NC(=O)CNC(=O)[C@H](CCC(N)=O)NC(=O)C(C)(C)NC(=O)[C@@H](N)Cc1c[nH]cn1)[C@@H](C)O)[C@@H](C)O)C(=O)N[C@@H](CO)C(=O)N[C@@H](CCCCN)C(=O)N[C@@H](Cc1ccc(O)cc1)C(=O)N[C@@H](CC(C)C)C(=O)N[C@@H](CC(=O)O)C(=O)N[C@@H](CCC(=O)O)C(=O)N[C@@H](CCCNC(=N)N)C(=O)N[C@@H](C)C(=O)N[C@@H](C)C(=O)N[C@@H](CCC(N)=O)C(=O)N[C@@H](CC(=O)O)C(=O)N[C@@H](Cc1ccccc1)C(=O)N[C@H](C(=O)N[C@@H](CCC(N)=O)C(=O)N[C@@H](Cc1c[nH]c2ccccc12)C(=O)N[C@@H](CC(C)C)C(=O)N[C@@H](CCSC)C(=O)N[C@@H](CC(=O)O)C(=O)N[C@H](C(N)=O)[C@@H](C)O)C(C)C)C(=O)O)C(=O)O` [compound 61]: the EC50 on glucagon receptor worked out at 0.009 nM; at GIP receptor, 0.676 nM; at GLP-1 receptor, 0.004 nM.

The record behind these values is patent publication US8729017B2 (priority 2011, dated 2014).
